Experimental data: patent US10173991B2, “Sulfone amide linked benzothiazole inhibitors of endothelial lipase” (BRISTOL-MYERS SQUIBB COMPANY, priority 2014, dated 2019)

Biological target: Endothelial lipase (EL) (Homo sapiens (Human), UniProt Q9Y5X9)
Assay: Endothelial lipase (EL) enzymatic assay with fluorescent substrate A10070 in DMPG vesicles
Type: biochemical
Conditions: not given
In short: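 EL from conditioned medium of HT-1080 cells engineered to overexpress endogenous EL; HL partially purified from conditioned medium of HL-overexpressing COS cells. Enzyme preincubated with compound 30 min at 37° C in 50 mM HEPES pH 8.0, 50 mM NaCl, 1 mM CaCl2; DMPG vesicles carrying FRET substrate (0.11 mole fraction) then added.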

Endothelial lipase (EL), sequence (Q9Y5X9 21-500): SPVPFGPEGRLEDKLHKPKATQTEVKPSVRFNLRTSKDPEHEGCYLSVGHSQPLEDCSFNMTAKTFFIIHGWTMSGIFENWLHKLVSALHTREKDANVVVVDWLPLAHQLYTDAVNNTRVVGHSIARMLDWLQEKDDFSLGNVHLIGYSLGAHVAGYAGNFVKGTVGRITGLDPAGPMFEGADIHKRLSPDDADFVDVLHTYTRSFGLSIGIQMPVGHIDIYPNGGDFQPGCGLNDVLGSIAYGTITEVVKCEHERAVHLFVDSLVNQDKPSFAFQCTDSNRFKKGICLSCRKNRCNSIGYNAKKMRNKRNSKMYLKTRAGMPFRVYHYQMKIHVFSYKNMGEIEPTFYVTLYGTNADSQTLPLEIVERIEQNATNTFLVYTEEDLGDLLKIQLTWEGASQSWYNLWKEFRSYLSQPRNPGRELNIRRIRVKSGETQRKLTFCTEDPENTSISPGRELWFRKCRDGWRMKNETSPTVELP

Compound | IC50 [nM]
CC(C)S(=O)(=O)C(C(=O)NCC(=O)NC1CC1)c1nc2cc(C(F)(F)F)c(-c3ccccc3)cc2s1 (stereo not shown) [Example 169, N-[(cyclopropyl-carbamoyl)methyl]-2-[6-phenyl-5-(trifluoromethyl)-1,3-benzothiazol-2-yl]-2-(propane-2-sulfonyl) acetamide] | 26
CC(=O)NCc1ccc(-c2cc3sc(C(C(=O)NCC(=O)NC4CC4)S(=O)(=O)c4ccc(F)c(F)c4)nc3cc2F)cc1 (stereo not shown) [Example 442, N-[(cyclopropyl-carbamoyl)methyl]-2-(3,4-difluorobenzene-sulfonyl)-2-{6-[4-(acetamidomethyl)phenyl]-5-fluoro-1,3-benzothiazol-2-yl}acetamide] | 10
COCCNC(=O)c1ccc(-c2ccc3nc(C(C(=O)NCC(=O)NC4CC4)S(=O)(=O)CCOC)sc3c2)cc1OC (stereo not shown) [Example 409, 4-[2-({[(cyclopropyl-carbamoyl)methyl]carbamoyl}(2-methoxyethane-sulfonyl)methyl)-1,3-benzothiazol-6-yl]-2-methoxy-N-(2-methoxyethyl) benzamide] | 23
O=C(CNC(=O)C(c1nc2c(F)cc(-c3ccc(F)nc3)cc2s1)S(=O)(=O)c1ccc(F)cc1)NC1CC1 (stereo not shown) [Example 472, N-[(cyclopropyl-carbamoyl)methyl]-2-[4-fluoro-6-(6-fluoropyridin-3-yl)-1,3-benzothiazol-2-yl]-2-(4-fluorobenzene-sulfonyl)acetamide] | 23
COCCS(=O)(=O)C(C(=O)NCC(=O)NC1CC1)c1nc2cc(C(F)(F)F)c(Br)cc2s1 (stereo not shown) [Example 165, 2-[6-bromo-5-(trifluoromethyl)-1,3-benzothiazol-2-yl]-N-[(cyclopropyl-carbamoyl)methyl]-2-(2-methoxyethane-sulfonyl) acetamide] | 18
COCCS(=O)(=O)C(C(=O)NCC(=O)NC1CC1)c1nc2cc(-c3cncnc3)ccc2s1 (stereo not shown) [Example 335, N-[(cyclopropyl-carbamoyl)methyl]-2-(2-methoxyethane-sulfonyl)-2-[5-(pyrimidin-5-yl)-1,3-benzothiazol-2-yl]acetamide] | 16
COCCS(=O)(=O)C(C(=O)NCC(=O)NC1CC1)c1nc2cc(C)c(-c3cnc(C)nc3)cc2s1 (stereo not shown) [Example 174, N-[(cyclopropyl-carbamoyl)methyl]-2-(2-methoxyethane-sulfonyl)-2-[5-methyl-6-(2-methylpyrimidin-5-yl)-1,3-benzothiazol-2-yl]acetamide] | 35
COCCS(=O)(=O)C(C(=O)NCC(=O)NC1CC1)c1nc2cc(F)c(-c3ccc4c(c3)OCCN4C(=O)OCc3ccccc3)cc2s1 (stereo not shown) [Example 419, benzyl 7-[2-({[(cyclopropyl-carbamoyl)methyl]carbamoyl}(2-methoxyethane-sulfonyl)methyl)-5-fluoro-1,3-benzothiazol-6-yl}-3,4-dihydro-2H-1,4-benzoxazine-4-carboxylate] | 9
Cc1cc2nc(C(C(=O)NCC(=O)NC3CC3)S(=O)(=O)C(C)C)sc2cc1-c1ccc(C(F)(F)F)nc1 (stereo not shown) [Example 209, N-[(cyclopropyl-carbamoyl)methyl]-2-{5-methyl-6-[6-(trifluoromethyl)pyridin-3-yl]-1,3-benzothiazol-2-yl}-2-(propane-2-sulfonyl) acetamide] | 11
O=C(CNC(=O)C(c1nc2ccc(-c3ccc(F)nc3)cc2s1)S(=O)(=O)Cc1ccc(F)cc1)NC1CC1 (stereo not shown) [Example 515, N-[(cyclopropyl-carbamoyl)methyl]-2-[(4-fluorophenyl)methanesulfonyl]-2-[6-(6-fluoropyridin-3-yl)-1,3-benzothiazol-2-yl]acetamide] | 48
COCCS(=O)(=O)C(C(=O)NCC(=O)NCC1CC1)c1nc2ccc(-c3ccc(F)nc3)cc2s1 (stereo not shown) [Example 382, N-{[(cyclopropyl-methyl)carbamoyl]methyl}-2-[6-(6-fluoropyridin-3-yl)-1,3-benzothiazol-2-yl]-2-(2-methoxyethane-sulfonyl)acetamide] | 22
Cc1ncc(-c2cc(C)c3nc(C(C(=O)NCC(=O)NC4CC4)S(=O)(=O)c4ccc(F)cc4)sc3c2)cn1 (stereo not shown) [Example 469, N-[(cyclopropyl-carbamoyl)methyl]-2-(4-fluorobenzene-sulfonyl)-2-[4-methyl-6-(2-methylpyrimidin-5-yl)-1,3-benzothiazol-2-yl]acetamide] | 41
Cc1cc2nc(C(C(=O)NCC(=O)NC3CC3)S(=O)(=O)C(C)C)sc2cc1-c1ccc(C#N)nc1 (stereo not shown) [Example 254, 2-[6-(6-cyanopyridin-3-yl)-5-methyl-1,3-benzothiazol-2-yl]-N-[(cyclopropyl-carbamoyl)methyl]-2-(propane-2-sulfonyl)acetamide] | 9
COCCS(=O)(=O)C(C(=O)NCC(=O)NCCOC(C)C)c1nc2cc(-c3ccc(F)nc3)c(F)cc2s1 (stereo not shown) [Example 352, 2-[6-fluoro-5-(6-fluoropyridin-3-yl)-1,3-benzothiazol-2-yl]-2-(2-methoxyethane-sulfonyl)-N-({[2-(propan-2-yloxy)ethyl]carbamoyl}methyl)acetamide] | 14
COC(=O)Nc1ccc(-c2ccc3nc(C(C(=O)NCC(=O)NC4CC4)S(=O)(=O)CCC(F)(F)F)sc3c2)c(C)c1 (stereo not shown) [Example 26] | 7

Further lines, results first:

IC50 [nM] | Compound
6 | O=C(CNC(=O)C(c1nc2cc(F)c(-c3ccc(-n4nc(C(F)(F)F)cc4C(=O)O)cc3)cc2s1)S(=O)(=O)CCC(F)(F)F)NC1CC1 (stereo not shown) [Example 588, 1-{4-[2-({[(cyclopropyl-carbamoyl)methyl]carbamoyl}(3,3,3-trifluoropropane-sulfonyl)methyl)-5-fluoro-1,3-benzothiazol-6-yl]phenyl}-3-(trifluoromethyl)-1H-pyrazole-5-carboxylic acid]
4 | COC(=O)Nc1cccc(-c2cc3sc(C(C(=O)NCC(=O)NC4CC4)S(C)(=O)=O)nc3cc2F)c1 (stereo not shown) [Example 117, methyl N-{3-[2-({[(cyclopropyl-carbamoyl)methyl]carbamoyl} (methanesulfonyl)methyl)-5-fluoro-1,3-benzothiazol-6-yl]phenyl} carbamate]
4 | CC(C)S(=O)(=O)C(C(=O)NCC(=O)NC1CC1)c1nc2cc(F)c(-c3ccc(NC(=O)CCc4ccccc4)cc3)cc2s1 (stereo not shown) [Example 578, N-{4-[2-({[(cyclopropyl-carbamoyl)methyl]carbamoyl} (propane-2-sulfonyl)methyl)-5-fluoro-1,3-benzothiazol-6-yl]phenyl}-3-phenyl-propanamide]
3 | Cc1cc2nc(C(C(=O)NCC(=O)NC3CC3)S(=O)(=O)C(C)C)sc2cc1-c1ccc(C(=O)N2CCC2)cc1 (stereo not shown) [Example 259, 2-{6-[4-(azetidine-1-carbonyl)phenyl]-5-methyl-1,3-benzothiazol-2-yl}-N-[(cyclopropyl-carbamoyl)methyl]-2-(propane-2-sulfonyl)acetamide]
3 | CS(=O)(=O)C(C(=O)NCC(=O)NC1CC1)c1nc2cc(F)c(-c3ccc(NC(N)=O)cc3)cc2s1 (stereo not shown) [Example 3, 2-{6-[4-(carbamoyl-amino)phenyl]-5-fluoro-1,3-benzothiazol-2-yl}-N-[(cyclopropyl-carbamoyl)methyl]-2-methanesulfonyl-acetamide]
3 | O=C(CNC(=O)C(c1nc2cc(F)c(-c3ccc(NC(=O)OCc4ccccc4)cc3)cc2s1)S(=O)(=O)C1CC1)NC1CC1 (stereo not shown) [Example 50, benzyl N-(4-{2-[(cyclopropane-sulfonyl) ({[(cyclopropyl-carbamoyl)methyl]carbamoyl}methyl]-5-fluoro-1,3-benzothiazol-6-yl}phenyl) carbamate]
3 | COCCS(=O)(=O)C(C(=O)NCC(=O)NC1CC1)c1nc2cc(F)c(-c3ccc(C(=O)N4CC(C)(O)C4)cc3)cc2s1 (stereo not shown) [Example 565, N-[(cyclopropyl-carbamoyl)methyl]-2-{5-fluoro-6-[4-(3-hydroxy-3-methylazetidine-1-carbonyl)phenyl]-1,3-benzothiazol-2-yl}-2-(2-methoxyethane-sulfonyl)acetamide]
3 | COC(=O)Nc1ccc(-c2cc3sc(C(C(=O)NCC(=O)NC4CC4)S(=O)(=O)CC4CC4)nc3cc2F)cc1 (stereo not shown) [Example 2, methyl N-{4-[2-({[(cyclopropyl-carbamoyl)methyl]carbamoyl} (cyclopropyl-methanesulfonyl)methyl)-5-fluoro-1,3-benzothiazol-6-yl]phenyl} carbamate]
2 | COCCS(=O)(=O)C(C(=O)NCC(=O)NC1CC1)c1nc2cc(-c3cccc(C(=O)OC(C)(C)C)c3)ccc2s1 (stereo not shown) [Example 134, tert-butyl 3-[2-({[(cyclopropyl-carbamoyl)methyl]carbamoyl}(2-methoxyethane-sulfonyl)methyl)-1,3-benzothiazol-5-yl]benzoate]
2 | CS(=O)(=O)C(C(=O)NCC(=O)NC1CC1)c1nc2cc(F)c(-c3ccc(-n4cccn4)cc3)cc2s1 (stereo not shown) [Example 375, N-[(cyclopropyl-carbamoyl)methyl]-2-{5-fluoro-6-[4-(1H-pyrazol-1-yl)phenyl]-1,3-benzothiazol-2-yl}-2-methanesulfonyl-acetamide]
1 | CCCCCS(=O)(=O)C(C(=O)NCC(=O)NC1CC1)c1nc2cc(F)c(-c3ccc(NC(=O)OCc4ccccc4)cc3)cc2s1 (stereo not shown) [Example 48, benzyl N-{4-[2-({[(cyclopropyl-carbamoyl)methyl]carbamoyl} (pentane-1-sulfonyl)methyl)-5-fluoro-1,3-benzothiazol-6-yl]phenyl}carbamate]
1 | CC(C)S(=O)(=O)C(C(=O)NCC(=O)NC1CC1)c1nc2cc(F)c(-c3ccc(NC(=O)OCC4CC4)cc3)cc2s1 (stereo not shown) [Example 528]

Same assay, conditions: EL from conditioned media of HT-1080 cells; 30 min preincubation at 37° C.

Compound | IC50 [nM]
COCCNC(=O)CNC(=O)C(c1nc2ccc(-c3ccc4c(c3)CN(C3CC3)C4=O)cc2s1)S(=O)(=O)c1ccc(F)cc1 (stereo not shown) [Example 595, 2-(6-(2-Cyclopropyl-1-oxoisoindolin-5-yl)benzo[d]thiazol-2-yl)-2-((4-fluorophenyl)sulfonyl)-N-(2-((2-methoxyethyl)amino)-2-oxoethyl)] | 24
